Assay results from US20240116998A1, “GLUCAGON-LIKE PEPTIDE-1 RECEPTOR ANTAGONISTS” (INDIANA UNIVERSITY RESEARCH AND TECHNOLOGY CORPORATION, priority 2021, published 2024).
Starred links: 1 amine or outer side, 2 acyl side, 3 side chain; linkers in the order of their positions; H or OH if unused. Residues, ends and D or L forms follow the SMILES beside them. Groups on a side chain read outwards from the residue. *: point of attachment. γGlu = O=C(O)[C@H](CCC(=O)[*:2])N[*:1]; Palmitoyl = CCCCCCCCCCCCCCCC(=O)*; AEEA = NCCOCCOCC(=O)O

Tests used:
[1] = Solubility of peptides in buffer; format: physicochemical; conditions: for solubility: pH 7.7
human GLP-1 receptor = biological target: T1, human GLP-1 receptor (Homo sapiens, UniProt P43220); assay: GLP-1 receptor-mediated cAMP induction, luciferase reporter gene assay (antagonism mode); format: cell-based; conditions: Table 2; HEK 293 cells, human GLP-1R, vs 0.05 nM GLP-1; read-out: Bioactivity IC50
T1 construct: host or cells: HEK 293
Procedure: GLP-1 Receptor-Mediated cAMP Induction
The ability of peptides to stimulate or block cAMP induction at the GLP-1 receptor was examined by a luciferase-based reporter gene assay. Cotransfection of HEK 293 cells with the human GLP-1 receptor (Open Biosystems) and a cAMPinducible (cAMPresponsive element) luciferase gene constituted the cellular construct where receptor activation could be measured. Bioassays were performed by first serum depriving the cells for 16 h in 0.25% bovine growth serum (HyClone)-supplemented Dulbecco's modified Eagle's medium (Invitrogen) and then adding serial dilutions of the peptides over the appropriate concentration ranges in 96-well poly-D-lysine-coated plates (BD Biosciences). For antagonism assays, a constant concentration of GLP-1 (0.05 nM) was added to the assay plate after the diluted peptides. Incubation continued for 5 h at 37° C., 5% CO2 and was followed by the addition of an equivalent volume (100 μL) of LucLite luminescence substrate reagent (Perkin-Elmer). MicroBeta 1450 liquid scintillation counting (Perkin-Elmer) quantified the luminescence signal in counts per second (cps) after shaking the plate at 600 rpm for 3 min. Data was plotted using Origin software (OriginLab) and the effective concentration 50 (EC50) or inhibitory concentration 50 (IC50) was determined by sigmoidal fitting. Potency was determined by comparative analysis of relative EC50 or IC50 values. Each experiment was repeated at least three times with each sample assayed in duplicate.

C57B1/6 mice = assay: Glucose tolerance test after subcutaneous GLP-1 antagonist (acute in vivo study); conditions: s.c. antagonist, i.p. glucose 1.5 g/kg four hours later
Procedure: FIGS. 2A & 2B present data from a glucose tolerance test wherein mice are subcutaneously administered the GLP-1 antagonist followed four hours later by intraperitoneal administration of glucose (1.5 g glucose per kg body weight).
C57B1/6 mice were obtained from Jackson Laboratories. Mice were single- or group-housed on a 12:12 h light-dark cycle at 22° C. with free access to food and water. All studies were approved by and performed according to the guidelines of the Institutional Animal Care and Use Committee of the University of Cincinnati.
For the determination of glucose tolerance, mice were subjected to 6 h of fasting and injected intraperitoneally with glucose. Injections consisted of 1.5 g glucose per kg body weight (25% w/v D-glucose (Sigma) in 0.9% w/v saline). Tail blood glucose levels (mg dL-1) were measured using a hand-held glucometer (FreeStyle Freedom Lite) before 0 min and at 15, 30, 60, and 120 min after injection.
Mice received a subcutaneous injection of peptide (in PBS) either 1, 4, 8, 24, 48, 72, or 120 at varying doses before being challenged with an IP injection of dipeptidyl peptidase-IV-protected Ex-4 (0.65 nmol kg−1). A GTT was performed fifteen minutes after the GLP-1 injection. Tail blood glucose values were obtained as described above.

T1 sequence (P43220 24-463): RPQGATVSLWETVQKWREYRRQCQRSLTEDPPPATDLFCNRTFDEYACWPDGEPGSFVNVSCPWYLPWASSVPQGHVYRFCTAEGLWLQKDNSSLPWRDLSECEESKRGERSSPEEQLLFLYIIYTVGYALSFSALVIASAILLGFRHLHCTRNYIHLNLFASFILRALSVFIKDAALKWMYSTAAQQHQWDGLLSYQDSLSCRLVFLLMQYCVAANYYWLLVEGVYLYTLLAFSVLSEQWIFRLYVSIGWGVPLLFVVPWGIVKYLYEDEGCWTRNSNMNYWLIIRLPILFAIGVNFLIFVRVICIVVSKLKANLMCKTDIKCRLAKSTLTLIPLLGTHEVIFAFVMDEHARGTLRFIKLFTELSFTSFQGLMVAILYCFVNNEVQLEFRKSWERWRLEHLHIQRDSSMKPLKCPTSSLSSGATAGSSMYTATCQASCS

SMILES | solubility [1] [mg/mL] | IC50 (human GLP-1 receptor) [nM] | further results
CCCCCCCCCCCCCCCC(=O)NCCOCCOCC(=O)NCCOCCOCC(=O)N[C@@H](CCC(=O)N[C@@H](CCC(=O)NCCCC[C@H](NC(=O)[C@H](CO)NC(=O)[C@@H]1CCCN1C(=O)[C@@H]1CCCN1C(=O)[C@@H]1CCCN1C(=O)[C@H](C)NC(=O)CNC(=O)[C@H](CO)NC(=O)[C@H](CO)NC(=O)[C@@H]1CCCN1C(=O)CNC(=O)CNC(=O)[C@H](CCCCN)NC(=O)[C@@H](NC(=O)[C@H](CC(C)C)NC(=O)[C@H](Cc1c[nH]c2ccccc12)NC(=O)[C@H](C)NC(=O)[C@@H](NC(=O)[C@H](Cc1ccccc1)NC(=O)[C@H](CCC(=O)O)NC(=O)[C@H](CCCNC(=N)N)NC(=O)[C@@H](NC(=O)[C@H](C)NC(=O)[C@H](CCC(N)=O)NC(=O)[C@H](CCC(=O)O)NC(=O)[C@H](CCC(=O)O)NC(=O)[C@H](CC(C)C)NC(=O)[C@H](Cc1ccc(O)cc1)NC(=O)[C@H](CO)NC(=O)[C@H](CO)NC(=O)[C@@H](NC(=O)[C@@H](N)CC(=O)O)C(C)C)C(C)C)[C@@H](C)CC)C(C)C)C(N)=O)C(=O)O)C(=O)O [SEQ ID NO: 61] (H-DVSSYLEEQAVREFIAWLVKGGPSSGAPPPSK([γGlu-γGlu-AEEA-AEEA-Palmitoyl])-NH2; N-terminus assumed) | > 25 | 6 | –
CCCCCCCCCCCCCCCC(=O)N[C@@H](CCC(=O)N[C@@H](CCC(=O)NCCOCCOCC(=O)NCCOCCOCC(=O)NCCCC[C@H](NC(=O)[C@H](CO)NC(=O)[C@@H]1CCCN1C(=O)[C@@H]1CCCN1C(=O)[C@@H]1CCCN1C(=O)[C@H](C)NC(=O)CNC(=O)[C@H](CO)NC(=O)[C@H](CO)NC(=O)[C@@H]1CCCN1C(=O)CNC(=O)CNC(=O)[C@H](CCCCN)NC(=O)[C@@H](NC(=O)[C@H](CC(C)C)NC(=O)[C@H](Cc1c[nH]c2ccccc12)NC(=O)[C@H](C)NC(=O)[C@@H](NC(=O)[C@H](Cc1ccccc1)NC(=O)[C@H](CCC(=O)O)NC(=O)[C@H](CCCNC(=N)N)NC(=O)[C@@H](NC(=O)[C@H](C)NC(=O)[C@H](CCC(N)=O)NC(=O)[C@H](CCC(=O)O)NC(=O)[C@H](CCC(=O)O)NC(=O)[C@H](CC(C)C)NC(=O)[C@H](Cc1ccc(O)cc1)NC(=O)[C@H](CO)NC(=O)[C@H](CO)NC(=O)[C@@H](NC(=O)[C@@H](N)CC(=O)O)C(C)C)C(C)C)[C@@H](C)CC)C(C)C)C(N)=O)C(=O)O)C(=O)O [SEQ ID NO: 58] (H-DVSSYLEEQAVREFIAWLVKGGPSSGAPPPSK([AEEA-AEEA-γGlu-γGlu-Palmitoyl])-NH2; N-terminus assumed) | – | 11 | –
CCCCCCCCCCCCCCCC(=O)N[C@@H](CCC(=O)NCCOCCOCC(=O)NCCCC[C@H](NC(=O)[C@H](CO)NC(=O)[C@@H]1CCCN1C(=O)[C@@H]1CCCN1C(=O)[C@@H]1CCCN1C(=O)[C@H](C)NC(=O)CNC(=O)[C@H](CO)NC(=O)[C@H](CO)NC(=O)[C@@H]1CCCN1C(=O)CNC(=O)CNC(=O)[C@H](CCCNC(=N)N)NC(=O)[C@@H](NC(=O)[C@H](CC(C)C)NC(=O)[C@H](Cc1c[nH]c2ccccc12)NC(=O)[C@H](CCC(=O)O)NC(=O)[C@@H](NC(=O)[C@H](Cc1ccccc1)NC(=O)[C@H](CCC(=O)O)NC(=O)[C@H](CCCNC(=N)N)NC(=O)[C@@H](NC(=O)[C@H](C)NC(=O)[C@H](CCC(N)=O)NC(=O)[C@H](CCC(=O)O)NC(=O)[C@H](CCC(=O)O)NC(=O)[C@H](CC(C)C)NC(=O)[C@H](Cc1ccc(O)cc1)NC(=O)[C@H](CCCNC(=N)N)NC(=O)[C@H](CO)NC(=O)[C@@H](NC(=O)[C@@H](N)CC(=O)O)C(C)C)C(C)C)[C@@H](C)CC)C(C)C)C(=O)O)C(=O)O [SEQ ID NO: 16] (H-DVSRYLEEQAVREFIEWLVRGGPSSGAPPPSK([AEEA-γGlu-Palmitoyl])-OH) | – | – | GLP-1 antagonist activity in glucose tolerance test (C57B1/6 mice; FIG. 2A): full antagonist; Potency relative to the GLP-1 antagonist Ex-9-40 in glucose tolerance test (C57B1/6 mice; FIGS. 2A & 2B): much higher potency
CCCCCCCCCCCCCCCC(=O)N[C@@H](CCC(=O)NCCOCCOCC(=O)NCCOCCOCC(=O)N[C@@H](CCC(=O)NCCCC[C@H](NC(=O)[C@H](CO)NC(=O)[C@@H]1CCCN1C(=O)[C@@H]1CCCN1C(=O)[C@@H]1CCCN1C(=O)[C@H](C)NC(=O)CNC(=O)[C@H](CO)NC(=O)[C@H](CO)NC(=O)[C@@H]1CCCN1C(=O)CNC(=O)CNC(=O)[C@H](CCCCN)NC(=O)[C@@H](NC(=O)[C@H](CC(C)C)NC(=O)[C@H](Cc1c[nH]c2ccccc12)NC(=O)[C@H](C)NC(=O)[C@@H](NC(=O)[C@H](Cc1ccccc1)NC(=O)[C@H](CCC(=O)O)NC(=O)[C@H](CCCNC(=N)N)NC(=O)[C@@H](NC(=O)[C@H](C)NC(=O)[C@H](CCC(N)=O)NC(=O)[C@H](CCC(=O)O)NC(=O)[C@H](CCC(=O)O)NC(=O)[C@H](CC(C)C)NC(=O)[C@H](Cc1ccc(O)cc1)NC(=O)[C@H](CO)NC(=O)[C@H](CO)NC(=O)[C@@H](NC(=O)[C@@H](N)CC(=O)O)C(C)C)C(C)C)[C@@H](C)CC)C(C)C)C(N)=O)C(=O)O)C(=O)O [SEQ ID NO: 57] (H-DVSSYLEEQAVREFIAWLVKGGPSSGAPPPSK([γGlu-AEEA-AEEA-γGlu-Palmitoyl])-NH2; N-terminus assumed) | > 25 | 9 | –
CCCCCCCCCCCCCCCC(=O)NCCCC[C@H](NC(=O)[C@H](CO)NC(=O)[C@@H]1CCCN1C(=O)[C@@H]1CCCN1C(=O)[C@@H]1CCCN1C(=O)[C@H](C)NC(=O)CNC(=O)[C@H](CO)NC(=O)[C@H](CO)NC(=O)[C@@H]1CCCN1C(=O)CNC(=O)CNC(=O)[C@H](CCCNC(=N)N)NC(=O)[C@@H](NC(=O)[C@H](CC(C)C)NC(=O)[C@H](Cc1c[nH]c2ccccc12)NC(=O)[C@H](CCC(=O)O)NC(=O)[C@@H](NC(=O)[C@H](Cc1ccccc1)NC(=O)[C@H](CCC(=O)O)NC(=O)[C@H](CCCNC(=N)N)NC(=O)[C@@H](NC(=O)[C@H](C)NC(=O)[C@H](CCC(=O)O)NC(=O)[C@H](CCC(=O)O)NC(=O)[C@H](CCC(=O)O)NC(=O)[C@H](CC(C)C)NC(=O)[C@H](Cc1ccc(O)cc1)NC(=O)[C@H](CO)NC(=O)[C@H](CO)NC(=O)[C@@H](NC(=O)[C@@H](N)CC(=O)O)C(C)C)C(C)C)[C@@H](C)CC)C(C)C)C(N)=O [SEQ ID NO: 72] (H-DVSSYLEEEAVREFIEWLVRGGPSSGAPPPSK(Palmitoyl)-NH2; N-terminus assumed) | – | – | Solubility 80 mM AmBicarb pH 7.7 ([1]; Table 3, 80 mM AmBicarb pH 7.7, unit not given): >20
